In PMC3407089, “Influence of GABAA Receptor α Subunit Isoforms on the Benzodiazepine Binding Site” (PLoS ONE, 2012):

Assays:
[1] = target: T1, α2S205Cβ2γ2 GABAA receptor (Rattus norvegicus, UniProt P18508+P23576, S233C); experiment: Covalent reaction of 3-NCS at the binding level (residual radioligand binding, HEK293 membranes)
Experimental: (§1) cDNAs coding for the αx (x = 1, 2, 3, 6), β2, and γ2S subunits DNA (20 µg : 20 µg : 20 µg) per 9 cm diameter dish were transfected in human embryonic kidney (HEK) 293 cells (American Type of Culture Collection, MD, USA, CRL 1573) using the calcium phosphate precipitation technique. For α5 containing receptors β2 was replaced by β1. […] Culturing of cells and membrane preparation were done as described before.
(§2) As detailed in previous work, [30], [33] this procedure included three steps: incubation of membranes expressing recombinant wild type or mutant receptors with the reactive agent followed by extensive washing of the membranes in order to remove non-reacted compound and a radioactive ligand binding assay to determine residual binding. No covalent reaction would result in 100% residual binding, and 100% covalent reaction would result in 0% residual binding.
(§3) Briefly, the membranes were re-suspended in phosphate buffer (100 mM KCl, 10 mM KH2PO4, 0.1 mM EDTA, pH 7.4) using a Glass/Teflon homogenizer. 0.1–1.0 mg/mL of protein were incubated in a total volume of 360 µL with either 10 µM (determination of degree of covalent reaction) or several concentrations of 3-NCS for 30 min on ice. Membranes were collected with rapid filtration on a round 7 mm diameter glass fiber filter (GF/C; Whatman) that was placed on a round 24 mm diameter glass fiber filter (GF/C; Whatman), both pre-washed with phosphate buffer. The reaction of 3-NCS with the receptor was stopped by washing of the filters six times with 5 mL phosphate buffer, each. The small filters with the deposited membranes were incubated in 0.12 mL phosphate buffer containing 5 nM [^3H]Ro15–1788. After 30 min the 7 mm filter was placed on a 24 mm filter and washed six times with 5 mL phosphate buffer each. Radioactivity was determined by liquid scintillation counting. Non-specific binding was determined in the presence of 100 µM Ro 15–1788. In control experiments, washing efficiency was estimated by placing radioactivity on the small filter. More than 99.95% of the radioactivity was removed (not shown).
(§4) Concentration response curves for 3-NCS were fitted with the equation C(c) = Cmax/(1+(EC50/c)), where c is the concentration of 3-NCS, EC50 the concentration of 3-NCS where half maximal covalent reaction was observed, Cmax is the maximal extent of the covalent reaction and C the measured extent of the covalent reaction.

[2] = target: α5T210Cβ1γ2 GABAA receptor (Rattus norvegicus, UniProt P18508+P19969, T241C); experiment: as above
Sequence of α5T210Cβ1γ2 GABAA receptor (P19969 26-464 T241C): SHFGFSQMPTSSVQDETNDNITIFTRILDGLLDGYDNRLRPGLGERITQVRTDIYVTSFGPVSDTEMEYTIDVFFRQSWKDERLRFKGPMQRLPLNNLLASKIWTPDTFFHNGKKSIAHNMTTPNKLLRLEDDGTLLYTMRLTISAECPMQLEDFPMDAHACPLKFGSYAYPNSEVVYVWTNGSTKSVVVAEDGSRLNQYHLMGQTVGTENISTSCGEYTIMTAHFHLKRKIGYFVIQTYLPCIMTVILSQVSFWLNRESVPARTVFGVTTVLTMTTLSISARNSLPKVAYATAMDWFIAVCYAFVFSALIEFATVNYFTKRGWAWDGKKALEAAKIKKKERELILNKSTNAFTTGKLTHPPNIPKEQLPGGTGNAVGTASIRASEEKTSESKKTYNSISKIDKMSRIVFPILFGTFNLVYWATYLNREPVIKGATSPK
Sequence of α5T210Cβ1γ2 GABAA receptor (P18508 39-466): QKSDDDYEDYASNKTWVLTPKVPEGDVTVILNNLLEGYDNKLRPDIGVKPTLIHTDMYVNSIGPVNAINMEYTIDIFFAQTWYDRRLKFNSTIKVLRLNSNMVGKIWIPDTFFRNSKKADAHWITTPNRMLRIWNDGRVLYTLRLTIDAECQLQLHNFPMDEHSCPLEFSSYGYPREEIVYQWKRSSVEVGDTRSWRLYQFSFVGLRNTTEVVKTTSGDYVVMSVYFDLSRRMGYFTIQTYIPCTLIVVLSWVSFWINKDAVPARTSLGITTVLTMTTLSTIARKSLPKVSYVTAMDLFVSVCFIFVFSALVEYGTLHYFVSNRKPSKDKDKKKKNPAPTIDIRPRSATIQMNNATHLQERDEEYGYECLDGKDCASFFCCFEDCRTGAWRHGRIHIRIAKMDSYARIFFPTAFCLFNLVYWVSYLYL
Sequence of α5T210Cβ1γ2 GABAA receptor (P15431 26-474 partner): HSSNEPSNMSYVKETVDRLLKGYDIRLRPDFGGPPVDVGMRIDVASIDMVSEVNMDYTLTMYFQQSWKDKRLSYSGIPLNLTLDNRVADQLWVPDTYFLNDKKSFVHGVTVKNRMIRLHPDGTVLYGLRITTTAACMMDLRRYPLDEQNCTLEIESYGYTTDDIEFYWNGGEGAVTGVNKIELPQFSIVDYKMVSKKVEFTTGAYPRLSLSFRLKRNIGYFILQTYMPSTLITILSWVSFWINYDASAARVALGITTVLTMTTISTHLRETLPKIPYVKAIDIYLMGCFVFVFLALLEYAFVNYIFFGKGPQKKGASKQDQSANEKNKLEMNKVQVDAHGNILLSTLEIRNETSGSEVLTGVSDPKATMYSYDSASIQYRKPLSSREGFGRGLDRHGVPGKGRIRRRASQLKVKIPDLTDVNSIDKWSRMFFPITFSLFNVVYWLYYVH
Experimental: as §1, §2, §3, §4

[3] = target: T2, α1T206Cβ2γ2 GABAA receptor (Rattus norvegicus, UniProt P18508+P62813, T233C); experiment: as above; conditions: 3-NCS 30 min on ice, washed; residual [^3H]Ro15–1788 binding
T2 sequence (P62813 28-455 T233C): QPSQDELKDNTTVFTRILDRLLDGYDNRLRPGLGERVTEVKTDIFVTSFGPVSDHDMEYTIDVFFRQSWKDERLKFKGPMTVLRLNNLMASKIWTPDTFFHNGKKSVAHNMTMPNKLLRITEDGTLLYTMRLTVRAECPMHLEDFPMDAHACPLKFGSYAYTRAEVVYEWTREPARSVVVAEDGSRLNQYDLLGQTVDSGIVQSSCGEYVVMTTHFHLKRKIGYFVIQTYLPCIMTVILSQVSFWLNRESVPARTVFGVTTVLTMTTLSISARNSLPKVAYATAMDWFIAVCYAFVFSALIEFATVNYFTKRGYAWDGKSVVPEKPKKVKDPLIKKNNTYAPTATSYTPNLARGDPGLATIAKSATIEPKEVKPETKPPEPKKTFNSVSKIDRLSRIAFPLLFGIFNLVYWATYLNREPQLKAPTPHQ
T2 sequence (P18508 39-466): as the sequence (P18508 39-466) above
T2 sequence (P63138 26-474 partner): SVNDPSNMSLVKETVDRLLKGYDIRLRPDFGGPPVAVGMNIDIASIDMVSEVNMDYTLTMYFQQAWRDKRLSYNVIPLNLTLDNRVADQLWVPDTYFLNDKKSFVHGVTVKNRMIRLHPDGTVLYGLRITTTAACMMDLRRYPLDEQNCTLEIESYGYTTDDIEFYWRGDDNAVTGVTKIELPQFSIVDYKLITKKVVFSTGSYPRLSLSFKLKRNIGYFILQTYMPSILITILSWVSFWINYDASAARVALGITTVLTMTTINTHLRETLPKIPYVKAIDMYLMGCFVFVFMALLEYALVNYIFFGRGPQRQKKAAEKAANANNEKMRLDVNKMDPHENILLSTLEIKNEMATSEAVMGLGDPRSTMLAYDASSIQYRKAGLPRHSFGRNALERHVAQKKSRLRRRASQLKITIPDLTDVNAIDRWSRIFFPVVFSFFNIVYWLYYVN
Experimental: as §1, §2, §3, §4

[4] = target: T3, α1S205Cβ2γ2 GABAA receptor (Rattus norvegicus, UniProt P18508+P62813, S232C); experiment: as above; conditions: 3-NCS 30 min on ice, washed; residual [^3H]Ro15–1788 binding
T3 sequence (P62813 28-455 S232C): as the sequence (P62813 28-455 T233C) above, with S205C, C206T counted along it
T3 sequence (P18508 39-466): as the sequence (P18508 39-466) above
T3 sequence (P63138 26-474 partner): as the sequence (P63138 26-474 partner) above
Experimental: as §1, §2, §3, §4

[5] = target: T4, α2S204Cβ2γ2 GABAA receptor (Rattus norvegicus, UniProt P18508+P23576, S232C); experiment: as above
T4 sequence (P23576 29-451 S232C): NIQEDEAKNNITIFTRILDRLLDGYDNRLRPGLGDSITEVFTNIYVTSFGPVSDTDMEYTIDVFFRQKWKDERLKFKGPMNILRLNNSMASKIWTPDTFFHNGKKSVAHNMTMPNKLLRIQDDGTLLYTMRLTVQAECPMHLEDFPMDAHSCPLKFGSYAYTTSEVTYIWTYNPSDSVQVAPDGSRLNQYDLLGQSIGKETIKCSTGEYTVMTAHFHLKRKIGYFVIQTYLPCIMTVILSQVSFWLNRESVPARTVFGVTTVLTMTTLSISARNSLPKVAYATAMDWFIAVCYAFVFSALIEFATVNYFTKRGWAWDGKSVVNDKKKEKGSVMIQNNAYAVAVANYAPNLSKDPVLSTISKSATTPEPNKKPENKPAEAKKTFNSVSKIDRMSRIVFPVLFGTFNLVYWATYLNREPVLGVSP
T4 sequence (P18508 39-466): as the sequence (P18508 39-466) above
T4 sequence (P63138 26-474 partner): as the sequence (P63138 26-474 partner) above
Experimental: as §1, §2, §3, §4

[6] = target: α5S209Cβ1γ2 GABAA receptor (Rattus norvegicus, UniProt P18508+P19969, S240C); experiment: as above
Sequence of α5S209Cβ1γ2 GABAA receptor (P19969 26-464 S240C): as the sequence (P19969 26-464 T241C) above, with S215C, C216T counted along it
Sequence of α5S209Cβ1γ2 GABAA receptor (P18508 39-466, stated change not applied): as the sequence (P18508 39-466) above
Sequence of α5S209Cβ1γ2 GABAA receptor (P15431 26-474 partner): as the sequence (P15431 26-474 partner) above
Experimental: as §1, §2, §3, §4

[7] = target: T5, α2T206Cβ2γ2 GABAA receptor (Rattus norvegicus, UniProt P18508+P23576, T234C); experiment: as above
T5 sequence (P23576 29-451 T234C): as the sequence (P23576 29-451 S232C) above, with C204S, T206C counted along it
T5 sequence (P18508 39-466): as the sequence (P18508 39-466) above
T5 sequence (P63138 26-474 partner): as the sequence (P63138 26-474 partner) above
Experimental: as §1, §2, §3, §4

[8] = target: T1, α2S205Cβ2γ2 GABAA receptor; experiment: Covalent reaction at the functional level (two-electrode voltage clamp, Xenopus oocytes); type: cell-based; conditions: after 10 µM 3-NCS and removal of non-covalently reacted 3-NCS; read-out: % allosteric modulation, 3-NCS
Experimental: (§5) Capped cRNAs were synthesized (Ambion, Austin, TX, USA) from the linearized plasmids with a cytomegalovirus promotor (pCMVvectors) containing the different subunits, respectively. A poly-A tail of about 400 residues was added to each transcript using yeast poly- A polymerase (United States Biologicals, Cleveland, OH, USA). The concentration of the cRNA was quantified on a formaldehyde gel using Radiant Red stain (Bio-Rad) for visualization of the RNA. Known concentrations of RNA ladder (Invitrogen) were loaded as standard on the same gel. cRNAs were precipitated in ethanol/isoamylalcohol 19∶ 1, the dried pellet dissolved in water and stored at −80°C. cRNA mixtures were prepared from these stock solutions and stored at −80°C. Xenopus laevis oocytes were prepared, injected and defolliculated as described previously, [39]. They were injected with 50 nL of the cRNA solution containing wild type or mutated α1 or α2, α3, α5, α6 and wild type β2 and γ2 subunits at a concentration of 10 nM : 10 nM : 50 nM [40] and then incubated in modified Barth’s solution at +18°C for at least 24 h before the measurements.
(§6) Tests with a model oocyte were performed to ensure linearity in the larger current range.
(§7) Electrophysiological experiments were performed by using the two-electrode voltage clamp method at a holding potential of −80 mV. The perfusion medium contained 90 mM NaCl, 1 mM KCl, 1 mM MgCl2, 1 mM CaCl2, and 5 mM Na-HEPES (pH 7.4) and was applied by gravity flow 6 ml/min. The perfusion medium was applied through a glass capillary with an inner diameter of 1.35 mm, the mouth of which was placed about 0.4 mm from the surface of the oocyte. Allosteric modulation via the benzodiazepine site was measured at a GABA concentration eliciting 2–5% of the maximal GABA current amplitude.

[9] = target: T2, α1T206Cβ2γ2 GABAA receptor; experiment: as above; type: cell-based; conditions: after 10 µM 3-NCS and removal of non-covalently reacted 3-NCS; read-out: % allosteric modulation, 3-NCS
Experimental: as §5, §6, §7

[10] = target: T3, α1S205Cβ2γ2 GABAA receptor; experiment: as above; type: cell-based; conditions: after 10 µM 3-NCS and removal of non-covalently reacted 3-NCS; read-out: % allosteric modulation, 3-NCS
Experimental: as §5, §6, §7

[11] = target: T4, α2S204Cβ2γ2 GABAA receptor; experiment: as above; type: cell-based; conditions: after 10 µM 3-NCS and removal of non-covalently reacted 3-NCS; read-out: % allosteric modulation, 3-NCS
Experimental: as §5, §6, §7

[12] = target: T5, α2T206Cβ2γ2 GABAA receptor; experiment: as above; type: cell-based; conditions: after 10 µM 3-NCS and removal of non-covalently reacted 3-NCS; read-out: % allosteric modulation, 3-NCS
Experimental: as §5, §6, §7

[13] = target: α6S203Cβ2γ2 GABAA receptor; experiment: Covalent reaction of 3-NCS at the binding level (residual radioligand binding, HEK293 membranes); parameters: key: n.r.: no covalent reaction; conditions: 3-NCS 30 min on ice, washed; [^3H]15–4513 as radioactive ligand
Experimental: as §1, §2
as §3, with “The reaction of 3-NCS with the receptor was stopped by washing of the filters six times with 5 mL phosphate buffer, each. The small filters with the deposited membranes were incubated in 0.12 mL phosphate buffer containing 5 nM [^3H]Ro15–1788. After 30 min the 7 mm filter was placed on a 24 mm filter and washed six times with 5 mL phosphate buffer each.” left out
as §4

[14] = 3-NCS 30 min on ice, washed, residual [^3H]Ro15–1788 binding
[15] = 0.5 h, 10 µM 3-NCS, mutation homologous to α1S205, n = 3, read-out: Extent of covalent reaction (100% minus % residual binding)
[16] = 0.5 h, 10 µM 3-NCS, mutation homologous to α1T206, n = 3, read-out: Extent of covalent reaction (100% minus % residual binding)

T1 sequence (P23576 29-451 S233C): as the sequence (P23576 29-451 S232C) above, with C204S, S205C counted along it
T1 sequence (P18508 39-466, stated change not applied): as the sequence (P18508 39-466) above
T1 sequence (P63138 26-474 partner): as the sequence (P63138 26-474 partner) above

CN1C(=O)C(N=C=S)N=C(c2ccccc2)c2cc([N+](=O)[O-])ccc21 (stereo not drawn) [3-NCS]
EC50 [1, 14]: 6600 ± 5400 nM | inhibition at 10 µM [1, 15]: 39% | EC50 [2, 14]: 450 ± 150 nM | inhibition at 10 µM [2, 16]: 73% | EC50 [3]: 82 ± 28 nM | EC50 [4]: 630 ± 180 nM | EC50 [5, 14]: 3200 ± 2300 nM | inhibition at 10 µM ([5]; 0.5 h, 10 µM 3-NCS, mutation homologous to α1S204, n = 3, read-out: Extent of covalent reaction (100% minus % residual binding)): 52% | EC50 [6, 14]: 4100 ± 2200 nM | inhibition at 10 µM [6, 15]: 54% | EC50 [7, 14]: 190 ± 56 nM | inhibition at 10 µM [7, 16]: 54% | activation at 10 µM [8]: 35 ± 10% | activation at 10 µM [9]: 119 ± 51% | activation at 10 µM [10]: 60 ± 43% | activation at 10 µM [11]: 1 ± 10% | activation at 10 µM [12]: 53 ± 29% | EC50 of the covalent reaction [13]: n.r. ^a
